Measurements: patent US12441689B2 (EpiVario, Inc., priority 2019, dated 2025)

Target: human ACSS2 protein (Homo sapiens (Human), UniProt Q9NR19)
Assay: ACSS2 Cell-Free Activity Assay (Cell-Free IC50)
Conditions: 10 nM human ACSS2 protein, 90 minutes at 37 C, pyrophosphatase-coupled, Biomol Green absorbance at 620 nm; read-out: ACSS2 Biochemical IC50
From the text: ACSS2 Cell-Free Activity Assay (Cell-Free IC50)

Sequence of human ACSS2 protein (Q9NR19 whole entry): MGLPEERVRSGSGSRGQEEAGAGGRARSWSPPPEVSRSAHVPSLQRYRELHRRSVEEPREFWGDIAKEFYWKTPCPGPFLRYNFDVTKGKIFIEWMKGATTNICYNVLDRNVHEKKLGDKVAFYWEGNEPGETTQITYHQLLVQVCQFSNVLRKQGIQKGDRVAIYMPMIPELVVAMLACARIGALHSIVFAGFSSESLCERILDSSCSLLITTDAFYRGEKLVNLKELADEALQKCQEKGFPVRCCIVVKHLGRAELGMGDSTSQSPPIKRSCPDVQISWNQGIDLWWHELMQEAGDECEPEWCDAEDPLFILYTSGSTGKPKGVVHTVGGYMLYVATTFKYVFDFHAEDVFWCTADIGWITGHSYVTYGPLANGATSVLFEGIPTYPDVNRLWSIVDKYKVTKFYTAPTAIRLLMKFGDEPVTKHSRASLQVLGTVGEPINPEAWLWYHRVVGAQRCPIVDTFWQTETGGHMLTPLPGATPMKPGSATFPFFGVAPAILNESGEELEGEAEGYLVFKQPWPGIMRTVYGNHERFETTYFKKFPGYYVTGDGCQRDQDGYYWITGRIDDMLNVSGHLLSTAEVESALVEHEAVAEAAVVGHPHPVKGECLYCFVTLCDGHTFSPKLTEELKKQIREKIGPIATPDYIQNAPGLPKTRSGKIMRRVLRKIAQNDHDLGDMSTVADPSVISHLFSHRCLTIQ

Row | Compound | IC50
1 | CCC(F)(F)c1cccc(NC(=O)c2c(C)oc(-c3ccc(OC)c(-c4ncccc4C)c3)[n+]2[O-])c1 [Compound 251, 4-((3-(1,1-difluoropropyl)phenyl)carbamoyl)-2-(4-methoxy-3-(3-methylpyridin-2-yl)phenyl)-5-methyloxazole 3-oxide] | > 100 nM
2 | COc1ccc(-c2nc(C(=O)Nc3cccc(C(C)(F)F)c3)c(C)o2)cc1 [Compound 153, N-[3-(1,1-difluoroethyl)phenyl]-2-(4-methoxyphenyl)-5-methyl-oxazole-4-carboxamide] | > 100 nM
3 | Cc1nn(-c2ccc(OC(F)F)cc2)c(N)c1C(=O)Nc1cccc(C(C)(F)F)c1 [Compound 171, 5-amino-N-(3-(1,1-difluoroethyl)phenyl)-1-(4-(difluoromethoxy)phenyl)-3-methyl-1H-pyrazole-4-carboxamide] | > 100 nM
4 | CC1=NN(c2ccc(C=C(c3ccccc3)c3ccccc3)c(Br)c2)C(=O)C1C(=O)Nc1cccc(C(C)(F)F)c1 (stereo not shown) [Compound 110] | 1 to 100 nM
5 | Cc1nn(-c2ccc(OC(F)F)cc2)c(C)c1C(=O)Nc1cccc(C(C)(F)F)c1 [Compound 184, N-(3-(1,1-difluoroethyl)phenyl)-1-(4-(difluoromethoxy)phenyl)-3,5-dimethyl-1H-pyrazole-4-carboxamide] | > 100 nM
6 | Cc1oc(-c2ccc(OC(F)F)c(-c3cccnc3)c2)nc1C(=O)Nc1cccc(C(C)(F)F)c1 [Compound 220, N-(3-(1,1-difluoroethyl)phenyl)-2-(4-(difluoromethoxy)-3-(pyridin-3-yl)phenyl)-5-methyloxazole-4-carboxamide] | > 100 nM
7 | CCC(F)(F)c1cccc(NC(=O)c2c(C)[nH]c(-c3ccc(OC)cc3)c2O)c1 [Compound 235, N-(3-(1,1-difluoropropyl)phenyl)-4-hydroxy-5-(4-methoxyphenyl)-2-methyl-1H-pyrrole-3-carboxamide] | > 100 nM
8 | CCC1(C(=O)Nc2cccc(C(C)(F)F)c2)C(=O)N(c2ccc(OC(F)F)cc2)N=C1C (stereo not shown) [Compound 159, N-(3-(1,1-difluoroethyl)phenyl)-1-(4-(difluoromethoxy)phenyl)-4-ethyl-3-methyl-5-oxo-4,5-dihydro-1H-pyrazole-4-carboxamide] | 1 to 100 nM
9 | CCC(F)(F)c1cccc(NC(=O)C2C(=O)N(c3cc(Cc4ccc(Cl)cc4)c(OC)c(-c4ccccc4)c3)N=C2C)c1 (stereo not shown) [Compound 236, 1-(5-(4-chlorobenzyl)-6-methoxy-[1,1′-biphenyl]-3-yl)-N-(3-(1,1-difluoropropyl)phenyl)-3-methyl-5-oxo-4,5-dihydro-1H-pyrazole-4-carboxamide] | 1 to 100 nM
10 | Cc1nn(-c2ccc(OC(F)F)cc2)c(OC(=O)N2CCN(CCO)CC2)c1C(=O)Nc1cccc(C(C)(F)F)c1 [Compound 191, 4-((3-(1,1-difluoroethyl)phenyl)carbamoyl)-1-(4-(difluoromethoxy)phenyl)-3-methyl-1H-pyrazol-5-yl 4-(2-hydroxyethyl)piperazine-1-carboxylate] | 1 to 100 nM
11 | CCC(F)(F)c1cccc(NC(=O)c2cnc(-c3ccc(OC(F)F)cc3)nc2C)c1 [Compound 143, 2-[4-(difluoromethoxy)phenyl]-N-[3-(1,1-difluoropropyl)phenyl]-4-methyl-pyrimidine-5-carboxamide] | > 100 nM
12 | CC1=NN(c2ccc(C=C(c3ccccc3)c3ccccc3)c(-c3cccnc3)c2)C(=O)C1C(=O)Nc1cccc(C(C)(F)F)c1 (stereo not shown) [Compound 109] | 1 to 100 nM
13 | CCC(F)(F)c1cccc(NC(=O)c2n[nH]c(-c3ccc(OC)cc3)c2C(C)=O)c1 [Compound 232, 4-acetyl-N-(3-(1,1-difluoropropyl)phenyl)-5-(4-methoxyphenyl)-1 H-pyrazole-3-carboxamide] | > 100 nM
14 | COc1ccc(N2N=C(C)C(F)(C(=O)Nc3cccc(C(C)(F)F)c3)C2=O)cc1 (stereo not shown) [Compound 209, N-(3-(1,1-difluoroethyl)phenyl)-4-fluoro-1-(4-methoxyphenyl)-3-methyl-5-oxo-4,5-dihydro-1H-pyrazole-4-carboxamide] | < 1 nM
15 | Cc1nn(-c2ccc(OC(F)F)cc2)c(C2CCCC2)c1C(=O)Nc1cccc(C(C)(F)F)c1 [Compound 154, 5-cyclopentyl-N-[3-(1,1-difluoroethyl)phenyl]-1-[4-(difluoromethoxy)phenyl]-3-methyl-pyrazole-4-carboxamide] | > 100 nM
16 | Cc1nn(-c2ccc(OC(F)F)cc2)c(OC(=O)N2CCC(N3CCCCC3)CC2)c1C(=O)Nc1cccc(C(C)(F)F)c1 [Compound 189, 4-((3-(1,1-difluoroethyl)phenyl)carbamoyl)-1-(4-(difluoromethoxy)phenyl)-3-methyl-1H-pyrazol-5-yl [1,4′-bipiperidine]-1′-carboxylate] | 1 to 100 nM
17 | CCCc1cc(N2N=C(C)C(C(=O)Nc3cccc(C(C)(F)F)c3)C2=O)cc(-c2ccccc2)c1OC (stereo not shown) [Compound 161, N-(3-(1,1-difluoroethyl)phenyl)-1-(6-methoxy-5-propyl-[1,1′-biphenyl]-3-yl)-3-methyl-5-oxo-4,5-dihydro-1H-pyrazole-4-carboxamide] | < 1 nM

Row | Compound | IC50
18 | CCCC1(C(=O)Nc2cccc(C(C)(F)F)c2)C(=O)N(c2ccc(OC(F)F)c(-c3ccccc3)c2)N=C1C (stereo not shown) [Compound 111, N-(3-(1,1-difluoroethyl)phenyl)-1-(6-(difluoromethoxy)-[1,1′-biphenyl]-3-yl)-3-methyl-5-oxo-4-propyl-4,5-dihydro-1H-pyrazole-4-carboxamide] | > 100 nM
19 | COc1ccc(N2N=C(C)C(Cl)(C(=O)Nc3cccc(C(C)(F)F)c3)C2=O)cc1 (stereo not shown) [Compound 202, 4-chloro-N-(3-(1,1-difluoroethyl)phenyl)-1-(4-methoxyphenyl)-3-methyl-5-oxo-4,5-dihydro-1H-pyrazole-4-carboxamide] | 1 to 100 nM
20 | CCCC1(C(=O)Nc2cccc(C(C)(F)F)c2)C(=O)N(c2ccc(OC(F)F)cc2)N=C1C (stereo not shown) [Compound 158, N-(3-(1,1-difluoroethyl)phenyl)-1-(4-(difluoromethoxy)phenyl)-3-methyl-5-oxo-4-propyl-4,5-dihydro-1H-pyrazole-4-carboxamide] | > 100 nM
21 | CC1=NN(c2ccc(OC(F)F)cc2)C(=O)C1(F)C(=O)Nc1cccc(C(C)(F)F)c1 (stereo not shown) [Compound 205, N-(3-(1,1-difluoroethyl)phenyl)-1-(4-(difluoromethoxy)phenyl)-4-fluoro-3-methyl-5-oxo-4,5-dihydro-1H-pyrazole-4-carboxamide] | < 1 nM
22 | CCC(F)(F)c1cccc(NC(=O)c2cc(-c3ccc(OC(F)F)cn3)[nH]c2C)c1 [Compound 222, 5-(5-(difluoromethoxy)pyridin-2-yl)-N-(3-(1,1-difluoropropyl)phenyl)-2-methyl-1H-pyrrole-3-carboxamide] | > 100 nM
23 | CCC(F)(F)c1cccc(NC(=O)c2cc(C)nc(-c3ccc(OC(F)F)cc3)n2)c1 [Compound 137, 2-(4-(difluoromethoxy)phenyl)-N-(3-(1,1-difluoropropyl)phenyl)-6-methylpyrimidine-4-carboxamide] | 1 to 100 nM
24 | CC(F)(F)c1cccc(NC(=O)c2cnc(-c3ccc(OC(F)F)cc3)nc2)c1 [Compound 173, N-(3-(1,1-difluoroethyl)phenyl)-2-(4-(difluoromethoxy)phenyl)pyrimidine-5-carboxamide] | > 100 nM
25 | CC(=O)c1c(C(=O)Nc2cccc(C(C)(F)F)c2)c(C)nn1-c1ccc(OC(F)F)cc1 [Compound 193, 5-acetyl-N-(3-(1,1-difluoroethyl)phenyl)-1-(4-(difluoromethoxy)phenyl)-3-methyl-1H-pyrazole-4-carboxamide] | > 100 nM
26 | Cc1nc(-c2ccc(OC(F)F)cc2)ncc1C(=O)Nc1cccc(C(C)(F)F)c1 [Compound 144, N-[3-(1,1-difluoroethyl)phenyl]-2-[4-(difluoromethoxy)phenyl]-4-methyl-pyrimidine-5-carboxamide] | > 100 nM
27 | CCC(F)(F)c1cccc(NC(=O)c2cc(C)nc(-c3ccc(OC(F)F)cn3)c2)c1 [Compound 257, 5'-(difluoromethoxy)-N-(3-(1,1-difluoropropyl)phenyl)-6-methyl-[2,2′-bipyridine]-4-carboxamide] | > 100 nM
28 | CCC(F)(F)c1cccc(NC(=O)c2c(C)nn(-c3ccc(OC)cc3)c2Cl)c1 [Compound 231, 5-chloro-N-(3-(1,1-difluoropropyl)phenyl)-1-(4-methoxyphenyl)-3-methyl-1H-pyrazole-4-carboxamide] | > 100 nM
29 | Cc1nn(-c2ccc(OC(F)F)c(-c3ccncc3)c2)cc1C(=O)Nc1cccc(C(C)(F)F)c1 [Compound 181, N-(3-(1,1-difluoroethyl)phenyl)-1-(4-(difluoromethoxy)-3-(pyridin-4-yl)phenyl)-3-methyl-1H-pyrazole-4-carboxamide] | 1 to 100 nM
30 | CCC(F)(F)c1cccc(NC(=O)c2cc(C)nc(-c3ccc(OC(F)F)c(-c4ccccc4)c3)n2)c1 [Compound 127, 2-(6-(difluoromethoxy)-[1,1′-biphenyl]-3-yl)-N-(3-(1,1-difluoropropyl)phenyl)-6-methylpyrimidine-4-carboxamide] | > 100 nM
31 | CCC(F)(F)c1cccc(NC(=O)c2c(C)nn(-c3ccc(OC)cc3)[n+]2[O-])c1 [Compound 253, 5-((3-(1,1-difluoropropyl)phenyl)carbamoyl)-2-(4-methoxyphenyl)-4-methyl-2H-1,2,3-triazole 1-oxide] | > 100 nM
32 | CCC(C)Oc1ccc(N2N=C(C)C(F)(C(=O)Nc3cccc(C(C)(F)F)c3)C2=O)cc1 (stereo not shown) [Compound 207, N-[3-(1,1-difluoroethyl)phenyl]-4-fluoro-3-methyl-5-oxo-1-(4-sec-butoxyphenyl)pyrazole-4-carboxamide] | < 1 nM
33 | 1-(4-(difluoromethoxy)phenyl)-3-methyl-4-(1-((4-(methylsulfonyl)phenyl)amino)-1H-1,2,3-triazol-4-yl)-1H-pyrazol-5(4H)-one [Compound 195] | > 100 nM
34 | CCC(F)(F)c1cccc(NC(=O)c2nc(-c3ccc(OC(F)F)cc3)cnc2C)c1 [Compound 125, 6-(4-(difluoromethoxy)phenyl)-N-(3-(1,1-difluoropropyl)phenyl)-3-methylpyrazine-2-carboxamide] | > 100 nM
